Reference: article PMC9998502, “Functional selectivity of EM-2 analogs at the mu-opioid receptor” (Frontiers in Pharmacology, 2023)
Non-standard residues stand in square brackets, D forms with d. Residues, ends and D or L forms follow the SMILES beside them. Dmt = Cc1cc(O)cc(C)c1C[C@H](N)C(=O)O; d(β3hA) = C[C@@H](N)CC(=O)O

Key:
[1] = molecular target: T1, human recombinant mu opioid receptor (Homo sapiens, UniProt P35372); test: Radioligand binding, [3H]DAMGO displacement, CHO cell membranes
T1 construct: purchased; host or cells: CHO cells (membranes)

delta-opioid receptor [2] = molecular target: T2, delta-opioid receptor (Homo sapiens, UniProt P41143); test: Calcium mobilization assay, CHO delta cells expressing GαqG66Di5; format: cell-based; design: expressed in transfected cells; host or cells: CHO cells co-expressing GαqG66Di5; conditions: inactive = inactive up to 10 µM; for Delta pEC50 (CL95%): calcium mobilization; for Delta α± SEM: intrinsic activity, Emax ratio to standard agonist DPDPE
delta-opioid receptor [3] = molecular target: T2, delta-opioid receptor; test: Radioligand binding, [3H]deltorphin-2 displacement, CHO cell membranes; design: purchased; host or cells: CHO cells (membranes)
[4] = Enzymatic degradation in rat brain homogenate; format: in vitro ADME; conditions: 37°C; for 100 x k, rate constant of degradation: up to 60 min; for half-life at 0.25 mM: rat, pH 7.4, rat brain homogenate, read-out: t1/2, degradation half-life
Procedure: Enzymatic degradation of EM-2 and the analogs was performed measuring their hydrolysis rates in the presence of rat brain homogenate. The homogenate was prepared prior to the experiment. Briefly, rat brains were homogenized in 20 volumes of Tris–HCl (50 mM, pH 7.4) using a Polytron and the obtained aliquots were stored at −80°C. In the experiment, aliquotes of brain homogenate (100 μL, 10 mg protein/mL) were incubated with 100 µL of a peptide (0.5 mM) over 0, 7.5; 15, 22.5; 30, and 60 min at 37°C, in a final volume of 200 µL. After the incubation the degradation reaction was stopped by placing the tube on ice and acidifying the content with 20 µL of HCl (1 M). The aliquots were centrifuged at 20,000 g for 10 min at 4°C. The supernatants were collected and filtered using Millex-GV syringe filters (Millipore). Then the analysis by HPLC on a Vydac C18 column (5 μm, 4.6 × 250 mm), using the solvent system of 0.1% TFA in water (A) and 80% acetonitrile in water containing 0.1% TFA (B) and a linear gradient of 0%–100% B over 25 min, was performed. Three independent experiments for each assay were carried out in duplicate. The rate constants of degradation (k) were obtained by the least square linear regression analysis of logarithmic peak areas [ln (A/AD)], where A—amount of remained peptide, AD—initial amount of peptide versus time. Degradation half-lives (t1/2) were calculated from the rate constants as ln2/k.

human mu receptor = molecular target: T3, human mu receptor (Homo sapiens, UniProt P35372); test: Calcium mobilization assay, CHO mu cells expressing Gαqi5; format: cell-based; conditions: for mu α±SEM: intrinsic activity, Emax ratio to standard agonist EM-2, inactive = inactive up to 10 µM
T3 construct: expressed in transfected cells; host or cells: CHO cells stably co-expressing Gαqi5

[5] = molecular target: T4, human recombinant kappa opioid receptor (Homo sapiens, UniProt P41145); test: Radioligand binding, [3H]U-69593 displacement, CHO cell membranes
T4 construct: purchased; host or cells: CHO cells (membranes)

[6] = n-Octanol/water partition coefficient (log P); format: physicochemical; conditions: n-octanol / 0.05 M HEPES buffer in 0.1 M NaCl, pH 7.4
Procedure: Determination of log P was performed according to the method described by ([Liu et al., 2006]). Peptides were dissolved in 0.05 M HEPES buffer in 0.1 M NaCl, pH 7.4, then an equal volume of n-octanol was added and mixtures were vortexed for 2 min. Samples were centrifuged at 4,000 rpm for 1 min. After separation, aqueous and octanol phases were used to quantify peptide content by RP-HPLC.
Octanol phase was lyophilized and reconstituted in 80% acetonitrile in water containing 0.1% TFA before RP-HPLC. All n-octanol/buffer distribution studies were performed in triplicate.

[7] = molecular target: T5, mu receptor-β-arrestin 2 interaction (Homo sapiens, UniProt P35372); test: BRET mu-β-arrestin 2 interaction assay (living SH-SY5Y cells, mu-RLuc/β-arrestin 2-RGFP), agonism; conditions: for β-Arrestin 2 pEC50 (CL95%): BRET mu-β-arrestin 2, Inactive: Emax < 0.10, analog 6 obtained by forcing the Emax to 1
Procedure: (§1) SH-SY5Y cells stably co-expressing the fusoproteins mu-RLuc and Gβ1-RGFP or mu-RLuc and β-arrestin 2-RGFP were grown in DMEM/F12 (1:1) medium supplemented with 10% FBS, 2 mM L-Glutamine, 100 μg/mL hygromycin B, 400 μg/mL G418, 100 units/mL penicillin G, 100 μg/mL streptomycin and 1 μg/mL Fungizone at 37°C in a humidified atmosphere with of 5% CO2.
Mu- β-arrestin 2 interaction—Living SH-SY5Y cells expressing mu-RLuc and β-arrestin 2-RGFP were seeded at a cell density of 100,000 cells/well 24 h prior to the test. On the day of the experiment, medium was discarded, and cells were washed with PBS supplemented with 0.5 mM MgCl2, 0.9 mM CaCl2. Cells were subsequently incubated with 2 μM Prolume Purple Coelenterazine (NanoLight Technology, White Mountain, AZ; United States) for 10 min before bioluminescence reading.
(§2) In agonism experiments, ligands were added and incubated for 5 min before microplate reading. […] BRET ratios were computed as follow: RGFPCPS/RLucCPSligand−RGFPCPS/RLucCPSvehicle
(§3) Concentration-response curves to agonists were fitted to the four-parameter logistic non-linear regression model as follows: Effect=Basal+Emax−Basal/1+10^LogEC50−Logligand×HillSlope

[8] = molecular target: mu receptor-G protein interaction (Homo sapiens, UniProt P35372); test: BRET mu-G protein interaction assay (membranes of SH-SY5Y cells, mu-RLuc/Gβ1-RGFP)
Procedure: as §1
Total protein in membrane preparations was determined by colorimetric method with the Quantum Protein-BCA kit (EuroClone, Pero (MI), IT) and measured using the multiplate reader Victor Nivo (PerkinElmer, Walthman, MA, United States). White opaque 96 wells microplates (PerkinElmer, Walthman, MA, United States) were used to carry out BRET assays. Cell membranes were thawed and resuspended in PBS supplemented with 0.02% BSA before the assay, and an amount of 5 μg of total protein was dispensed in each 96 well. All experiments were carried out at room temperature.
as §2, §3

[9] = molecular target: T5, mu receptor-β-arrestin 2 interaction; test: cell-based; design: expressed in transfected cells; conditions: read-out: pKb (CL95%) (converted)
Procedure: In antagonism experiments, a 10 min preincubation with vehicle or fixed concentrations of ligand preceded the injection of increasing concentrations of EM-2.
Antagonist potencies (pKb) were computed applying the following equation: pKb = (log (CR − 1)) − log [Anta] with CR as the ratio between agonist potency (molar) in the presence and absence of antagonist and [Anta] is the molar concentration of antagonist. pKb represents the concentration of antagonist that occupies half of the receptor population at equilibrium, expressed in molar units.

human kappa receptor = molecular target: T6, human kappa receptor (Homo sapiens, UniProt P41145); test: Calcium mobilization assay, CHO kappa cells expressing Gαqi5; format: cell-based; conditions: inactive = inactive up to 10 µM; for Kappa pEC50 (CL95%): calcium mobilization; for Kappa α± SEM: intrinsic activity, Emax ratio to standard agonist dynorphin A
T6 construct: expressed in transfected cells; host or cells: CHO cells stably co-expressing Gαqi5

mu receptor = test: Bias factor, mu-G protein vs mu-β-arrestin 2 (BRET), EM-2 as standard ligand; conditions: log10 units, towards G protein

T2 sequence (P41143 whole entry): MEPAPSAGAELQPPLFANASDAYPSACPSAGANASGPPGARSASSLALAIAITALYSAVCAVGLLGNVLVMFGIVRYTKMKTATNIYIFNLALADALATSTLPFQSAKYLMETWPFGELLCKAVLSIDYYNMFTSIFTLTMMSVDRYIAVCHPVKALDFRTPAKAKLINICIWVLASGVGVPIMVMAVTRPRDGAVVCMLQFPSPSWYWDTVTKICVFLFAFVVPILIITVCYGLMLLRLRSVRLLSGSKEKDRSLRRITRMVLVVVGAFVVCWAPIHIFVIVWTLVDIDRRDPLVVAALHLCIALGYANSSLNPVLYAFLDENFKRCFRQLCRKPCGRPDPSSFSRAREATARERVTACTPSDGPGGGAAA
T4 sequence (P41145 whole entry): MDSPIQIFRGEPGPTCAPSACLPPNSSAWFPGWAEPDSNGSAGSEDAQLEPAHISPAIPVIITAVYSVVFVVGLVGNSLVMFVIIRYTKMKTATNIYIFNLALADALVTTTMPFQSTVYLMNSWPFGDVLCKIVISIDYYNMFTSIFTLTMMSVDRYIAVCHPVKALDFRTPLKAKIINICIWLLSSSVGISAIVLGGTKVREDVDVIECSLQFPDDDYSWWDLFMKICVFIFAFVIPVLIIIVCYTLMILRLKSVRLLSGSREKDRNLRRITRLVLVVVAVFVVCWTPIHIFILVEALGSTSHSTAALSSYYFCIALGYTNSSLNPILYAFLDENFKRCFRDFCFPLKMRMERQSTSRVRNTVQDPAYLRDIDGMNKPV
T6 sequence (P41145 whole entry): as above
mu receptor-G protein interaction, sequence (P62871 whole entry): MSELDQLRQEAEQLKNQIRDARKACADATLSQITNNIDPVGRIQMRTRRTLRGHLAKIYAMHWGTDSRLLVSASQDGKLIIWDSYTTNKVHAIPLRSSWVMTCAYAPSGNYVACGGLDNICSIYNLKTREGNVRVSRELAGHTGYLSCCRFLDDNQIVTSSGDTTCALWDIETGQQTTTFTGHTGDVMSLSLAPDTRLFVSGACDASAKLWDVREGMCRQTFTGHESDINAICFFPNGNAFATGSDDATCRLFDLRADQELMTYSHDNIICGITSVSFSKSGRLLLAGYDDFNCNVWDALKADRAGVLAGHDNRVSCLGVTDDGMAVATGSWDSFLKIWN
mu receptor-G protein interaction, sequence (P35372 whole entry): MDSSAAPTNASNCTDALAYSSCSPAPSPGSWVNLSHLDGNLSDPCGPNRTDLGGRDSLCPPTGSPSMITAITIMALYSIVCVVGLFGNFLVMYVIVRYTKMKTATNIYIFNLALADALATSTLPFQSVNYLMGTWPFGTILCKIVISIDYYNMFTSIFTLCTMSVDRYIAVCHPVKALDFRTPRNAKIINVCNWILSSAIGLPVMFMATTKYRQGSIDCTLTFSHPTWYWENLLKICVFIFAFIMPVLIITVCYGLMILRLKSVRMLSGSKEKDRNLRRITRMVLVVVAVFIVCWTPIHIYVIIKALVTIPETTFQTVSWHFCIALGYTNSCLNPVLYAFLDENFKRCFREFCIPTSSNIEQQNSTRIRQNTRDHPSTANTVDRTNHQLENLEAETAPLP
T5 sequence (P35372 whole entry): as above
T3 sequence (P35372 whole entry): as above
T1 sequence (P35372 whole entry): as above

Row | SMILES | Ki [1] [nM] | Delta pEC50 (CL95%) (delta-opioid receptor [2]) | Delta α± SEM (delta-opioid receptor [2]) | Ki (delta-opioid receptor [3]) [nM] | 100 x k, rate constant of degradation [4] [per min] | half-life at 0.25 mM ([4]; ln2/k) [h] | EC50 (human mu receptor) [nM] | mu α±SEM (human mu receptor) | Ki [5] [nM] | logD [6] | β-Arrestin 2 pEC50 (CL95%) [7] | EC50 [8] [nM] | Kb [9] [nM] | Kappa pEC50 (CL95%) (human kappa receptor) | Kappa α± SEM (human kappa receptor) | Bias factor (CL95%) (mu receptor) | EC50 [7] [nM] | t1/2, degradation half-life ([4]; ln2/k) [h]
1 | NC(=O)[C@H](Cc1ccccc1)NC(=O)[C@H](Cc1ccccc1)NC(=O)[C@H]1CCCCN1C(=O)[C@@H](N)Cc1ccc(O)cc1 [analog 2, Tyr-(R)-Pip-Phe-Phe-NH2] | 17.7 ± 1.14 | inactive | inactive | 682 ± 33 | 0.57 ± 0.08 | 2.02 ± 0.0517 | 58.9 | 0.64 ± 0.04 | > 1000 | 2.3 | Inactive | 38 | 170 | inactive | inactive |  |  | 
2 | Cc1cc(O)cc(C)c1C[C@H](N)C(=O)N[C@H](C)CC(=O)N[C@@H](Cc1ccccc1)C(=O)N[C@@H](Cc1ccccc1)C(N)=O [analog 9, Dmt-(R)-β ^ 3 -Ala-Phe-Phe-NH2] (H-[Dmt][d(β3hA)]FF-NH2; N-terminus assumed) | 0.14 ± 0.07 | inactive | inactive | 286 ± 18 | 1.90 ± 0.04 | 0.605 ± 0.0467 | 0.457 | 1.00 ± 0.05 | 890 ± 42 | 2.09 |  | 0.724 |  | inactive | inactive | 0.27 (0.16–0.38) | 2.14 | 
3 | NC(=O)[C@H](Cc1ccccc1)NC(=O)[C@@H](CNC(=O)[C@@H]1CCCN1C(=O)[C@@H](N)Cc1ccc(O)cc1)Cc1cccc2ccccc12 [analog 10, Tyr-Pro-(R)-β ^ 2 -1-Nal-Phe-NH2] |  | inactive | inactive | > 1000 | 0.41 ± 0.02 | 2.8 |  | 0.25 ± 0.06 | > 1000 | 2.5 | Inactive | 105 | 631 | inactive | inactive |  |  | 2.805 ± 0.0917
4 | Cc1cc(O)cc(C)c1C[C@H](N)C(=O)N1CCC[C@H]1C(=O)NC[C@@H](Cc1cccc2ccccc12)C(=O)N[C@@H](Cc1ccccc1)C(N)=O [analog 11, Dmt-Pro-(R)-β ^ 2 -1-Nal-Phe-NH2] |  | inactive | inactive |  | 0.56 ± 0.02 | 2.05 ± 0.0983 | 9.77 | 0.57 ± 0.05 | > 1000 | 2.71 | Inactive | 4.9 | 0.398 | inactive | inactive |  |  | 
